Test results from US20060078598A1, “Animal feed containing an encapsulated ingredient” (CAN Technologies, Inc., priority 2002, published 2006).
Where two headings read alike, the source gives them in different places.

Assays:
[1] = deionized water
Source text: Equal levels of each sample (circa 1.0 wt. % of methionine based on total feed weight) were introduced into a feed formula that was placed in a vessel and exposed to deionized water for an hour.

[2] = feed formula with circa 1.0 wt. % sample, contacted with deionized water
Source text: Equal levels of each sample (circa 1.0 wt. % based on total feed weight) were introduced into a feed formula that was placed in a vessel and contacted with deionized water.

## CSCC[C@H](N)C(=O)O [Uncoated methionine, methionine]
[1]; after about 1 minute
  percent loss of methionine: about 15 wt. %
[1]; after about 5 minutes
  percent loss of methionine: about 22 wt. %
[1]; after about 15 minutes
  percent loss of methionine: about 30 wt. %
[1]; after about 60 minutes
  percent loss of methionine: about 43 wt. %
[2]
  LEACHING LOSS AFTER 30 MINUTES: 40%
